EPA's ToxValDB 9.5

Experiments:
Oryctolagus sp. = details: acute, dermal, New Zealand
Rattus norvegicus [1] = details: oral; for LD50: acute
Mus musculus [2] = details: for LD50: acute; for LD50 / NOAEL: oral
Canidae = details: chronic, oral, diet, Dog Other
Rattus norvegicus [3] = details: subchronic; duration: 13 weeks; oral; gavage; M/F; Fischer 344; Deaths + Clinical Observation: Hind limb paresis + Functional Observational Battery: Hind limb-grip strength decrease Auditory startle …
Mus musculus [4] = details: oral, gavage, C57BL/6; for LOAEL / NOAEL: subchronic, duration: 30 days; for LEL / NEL: short-term, duration: 28 days
[5] = duration: 1 years, M/F, Liver effects + organ weight changes
[6] = duration: 1 years, M/F, thyroid toxicity
[7] = duration: 2 years, M/F, cholinesterase inhibition
[8] = duration: 1 years, M/F, liver cell enlargement
[9] = M/F, reduced body weight gain, skeletal myopathy, slight anemia, bone marrow hyperplasia, increased serum sgot, sgpt, cpk
[10] = duration: 2 years, M/F, liver toxicity
[11] = F, Cardiovascular: Heart: Heart Weight, Relative + Hepatic: Liver: Liver Weight, Relative + Immune: Multi-Organ: Immunoglobulin M (IgM), Serum…
[12] = M, Cardiovascular: Heart: Heart Weight, Relative + Hepatic: Liver: Liver Weight, Relative + Immune: Multi-Organ: Immunoglobulin M (IgM), Serum…
[13] = M, Hepatic: Liver: Liver Weight, Relative
[14] = F, Liver: Acyl-CoA Oxidase Activity, Liver + Multi-organ: IgM Serum Titer + Spleen: Spleen Weight, Absolute + Spleen: Spleen Weight, Relative
[15] = F, Liver: Liver Weight, Absolute + Liver: Liver Weight, Relative
[16] = M, Liver: Acyl-CoA Oxidase Activity, Liver + Liver: Liver Weight, Absolute + Liver: Liver Weight, Relative
[17] = M, Spleen: CD4-/CD8- Cell Count + Spleen: CD4+/CD8+ Cell Count + Spleen: CD8+ Cell Count
[18] = duration: 2 years, M/F, elevated alkaline phosphatase + Increase in thyroid/body weight ratio + slight increase in liver weights

c1ccc(-c2ccccc2)cc1 [Biphenyl] gave an LD50 (Oryctolagus sp.) of over 5010 mg/kg, an LD50 (Rattus norvegicus [1]; Sprague-Dawley) of 2400 mg/kg and an LD50 (Rattus norvegicus [1]; gavage, Sprague-Dawley) of 3280 mg/kg. For the same molecule, the NOAEL (Rattus norvegicus [1]; chronic, duration: 750 days, diet) was 78 mg/kg-day, the NOAEL (Rattus norvegicus [1]; developmental, duration: 10 days, gavage, Wistar) was 500 mg/kg-day and the NOAEL (Rattus norvegicus [1]; reproduction developmental, duration: 10 days, gavage, F, Wistar) was 500 mg/kg-day. It also gave an NOAEL (Rattus norvegicus [1]; reproduction developmental, duration: 750 days, diet, generation: F0) of 1000 ppm, an NOAEL (Rattus norvegicus [1]; reproduction developmental, duration: 750 days, diet, generation: F1) of 5000 ppm and an NOAEL (Rattus norvegicus [1]; reproduction developmental, diet, Long-Evans, generation: F0) of 1000 ppm. For the same molecule, the LOAEL (Mus musculus [2]; subchronic, duration: 13 weeks, inhalation, CD1) was 158 mg/m3.
Clc1ccccc1-c1nnc(-c2ccccc2Cl)nn1 [Clofentezine] showed an LEL (Canidae; [5]) of 25 mg/kg-day and an NOEL (Canidae; [5]) of 1.25 mg/kg-day.
Molecule CC(=O)O.CCCCCCCCCCCCN=C(N)N [Dodecylguanidine acetate] has an LEL (Canidae; [6]) of 5 mg/kg-day and an NOEL (Canidae; [6]) of 1.25 mg/kg-day.
CCOP(=O)(NC(C)C)Oc1ccc(SC)c(C)c1 (stereo not drawn) [Fenamiphos] gave an LEL (Canidae; [7]) of 0.05 mg/kg-day and an NOEL (Canidae; [7]) of 0.025 mg/kg-day.
C[Si](Cn1cncn1)(c1ccc(F)cc1)c1ccc(F)cc1 [Flusilazole] gave an LEL (Canidae; [8]) of 0.7 mg/kg-day and an NOEL (Canidae; [8]) of 0.2 mg/kg-day.
CC(C)C1(C)N=C(c2nc3ccccc3cc2C(=O)O)NC1=O (stereo not drawn) [Imazaquin] showed an LEL (Canidae; [9]) of 125 mg/kg-day and an NOEL (Canidae; [9]) of 25 mg/kg-day.
COc1nn(CSP(=S)(OC)OC)c(=O)s1 [Methidathion] was tested, and the LEL (Canidae; [10]) was 0.4 mg/kg-day and the NOEL (Canidae; [10]) was 0.1 mg/kg-day.
For C=CC(=O)NCO [N-Methylolacrylamide], the NOEL (Rattus norvegicus [3]) was under 12.5 mg/kg-day, the LD50 (Rattus norvegicus [1]; gavage, Fischer 344) was 400 mg/kg and the NOAEL (Rattus norvegicus [1]; short-term, duration: 16 days, gavage, Fischer 344) was 50 mg/kg-day. The NOAEL (Rattus norvegicus [1]; short-term, duration: 28 days, diet) was 4 mg/kg-day, the NOAEL (Rattus norvegicus [1]; subchronic, duration: 90 days, gavage, Fischer 344) was 12.5 mg/kg-day and the LD50 (Mus musculus [2]; DD) was 677 mg/kg. It also gave an LD50 (Mus musculus [2]; gavage, B6C3F1) of 400 mg/kg, an NOAEL (Mus musculus [2]; short-term, duration: 16 days, gavage, B6C3F1) of 100 mg/kg-day and an NOAEL (Mus musculus [2]; subchronic, duration: 90 days, gavage, B6C3F1) of 12.5 mg/kg-day.
For O=C(O)C(F)(F)C(F)(F)C(F)(F)OC(F)(F)F [Perfluoro(4-methoxybutanoic acid)], the LOAEL (Mus musculus [4]; [11]) was 50 mg/kg-day, the LOAEL (Mus musculus [4]; [12]) was 50 mg/kg-day and the NOAEL (Mus musculus [4]; [12]) was 5 mg/kg-day. It also gave an NOAEL (Mus musculus [4]; M, Cardiovascular: Heart: Heart Weight, Relative + Immune: Multi-Organ: Immunoglobulin M (IgM), Serum + Immune: Multi-Organ: Natural Killer (NK…) of 50 mg/kg-day, an LOAEL (Mus musculus [4]; [13]) of 50 mg/kg-day and an NOAEL (Mus musculus [4]; [13]) of 5 mg/kg-day.
Work on O=C(O)C(F)(OC(F)(F)C(F)(F)C(F)(F)F)C(F)(F)F (stereo not drawn) [Perfluoro-2-methyl-3-oxahexanoic acid] yielded an LEL (Mus musculus [4]; [14]) of 100 mg/kg-day, an NEL (Mus musculus [4]; [14]) of 10 mg/kg-day and an LEL (Mus musculus [4]; [15]) of 10 mg/kg-day. It also gave an NEL (Mus musculus [4]; [15]) of 1 mg/kg-day, an NEL (Mus musculus [4]; F, Spleen: B Cell Count + Spleen: CD4-/CD8- Cell Count + Spleen: CD4+ Cell Count + Spleen: CD4+/CD8+ Cell Count + Spleen: CD8+ Cell Count + …) of 100 mg/kg-day and an LEL (Mus musculus [4]; [16]) of 10 mg/kg-day. For the same molecule, the NEL (Mus musculus [4]; [16]) was 1 mg/kg-day, the NEL (Mus musculus [4]; M, Multi-organ: IgM Serum Titer + Spleen: B Cell Count + Spleen: CD4+ Cell Count + Spleen: Spleen Weight, Absolute + Spleen: Spleen Weight, …) was 100 mg/kg-day and the LEL (Mus musculus [4]; [17]) was 100 mg/kg-day. The NEL (Mus musculus [4]; [17]) was 10 mg/kg-day.
For O=C(O)C(F)(F)C(F)(F)OC(F)(F)F [Perfluoro-3-methoxypropanoic acid], the NOAEL (Mus musculus [4]; [11]) was 50 mg/kg-day and the NOAEL (Mus musculus [4]; [12]) was 50 mg/kg-day.
With Nc1c(Cl)c(Cl)nc(C(=O)O)c1Cl [Picloram] the NOEL (Canidae; duration: 6 months, M/F, increased liver weight) was 7 mg/kg-day and the LEL (Canidae; duration: 6 months, M, increased liver weight) was 35 mg/kg-day.
Work on Cc1[nH]c(=O)n(C(C)(C)C)c(=O)c1Cl [Terbacil] yielded an LEL (Canidae; [18]) of 6.25 mg/kg-day and an NOEL (Canidae; [18]) of 1.25 mg/kg-day.
[S-]c1nc2ccccc2s1.[S-]c1nc2ccccc2s1.[Zn+2] [Zinc 2-mercaptobenzothiazolate] gave an LD50 (Oryctolagus sp.) of over 2000 mg/kg, an LD50 (Oryctolagus sp.; occlusive) of over 7940 mg/kg and an LD50 (Rattus norvegicus [1]; Sprague-Dawley) of 5500 mg/kg. It also gave an LD50 (Rattus norvegicus [1]; gavage, Sprague-Dawley) of 7500 mg/kg and an NOAEL (Mus musculus [2]; reproduction developmental, duration: 18 months) of 1000 mg/kg-day.
